How the values were obtained:
[1] = target: Acetylcholinesterase (Electrophorus electricus) (UniProt O42275); settings: at 2 mg/mL
Description: Inhibition of electric eel AChE at 2 mg/ml by Ellman's method

[2] = target: Cholinesterase (Equus caballus) (UniProt P81908); settings: at 2 mg/mL
Cholinesterase (Equus caballus), sequence (P81908 whole entry): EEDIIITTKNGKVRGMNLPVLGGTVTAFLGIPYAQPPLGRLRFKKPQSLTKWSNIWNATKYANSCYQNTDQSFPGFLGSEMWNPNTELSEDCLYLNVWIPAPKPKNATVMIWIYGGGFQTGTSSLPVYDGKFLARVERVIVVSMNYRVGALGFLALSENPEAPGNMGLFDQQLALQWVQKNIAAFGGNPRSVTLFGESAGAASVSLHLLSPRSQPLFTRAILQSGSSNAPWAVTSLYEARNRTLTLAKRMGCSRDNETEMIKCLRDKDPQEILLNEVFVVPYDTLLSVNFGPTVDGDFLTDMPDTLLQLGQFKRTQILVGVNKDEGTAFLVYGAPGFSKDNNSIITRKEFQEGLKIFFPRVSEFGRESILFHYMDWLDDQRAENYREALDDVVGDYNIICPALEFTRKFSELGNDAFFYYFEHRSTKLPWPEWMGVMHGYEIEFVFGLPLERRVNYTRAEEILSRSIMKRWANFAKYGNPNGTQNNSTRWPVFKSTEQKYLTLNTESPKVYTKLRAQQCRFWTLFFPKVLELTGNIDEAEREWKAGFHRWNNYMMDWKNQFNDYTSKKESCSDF
Description: Inhibition of horse BChE at 2 mg/ml by Ellman's method

Acetylcholinesterase (Electrophorus electricus), sequence (O42275 24-633 limits assumed): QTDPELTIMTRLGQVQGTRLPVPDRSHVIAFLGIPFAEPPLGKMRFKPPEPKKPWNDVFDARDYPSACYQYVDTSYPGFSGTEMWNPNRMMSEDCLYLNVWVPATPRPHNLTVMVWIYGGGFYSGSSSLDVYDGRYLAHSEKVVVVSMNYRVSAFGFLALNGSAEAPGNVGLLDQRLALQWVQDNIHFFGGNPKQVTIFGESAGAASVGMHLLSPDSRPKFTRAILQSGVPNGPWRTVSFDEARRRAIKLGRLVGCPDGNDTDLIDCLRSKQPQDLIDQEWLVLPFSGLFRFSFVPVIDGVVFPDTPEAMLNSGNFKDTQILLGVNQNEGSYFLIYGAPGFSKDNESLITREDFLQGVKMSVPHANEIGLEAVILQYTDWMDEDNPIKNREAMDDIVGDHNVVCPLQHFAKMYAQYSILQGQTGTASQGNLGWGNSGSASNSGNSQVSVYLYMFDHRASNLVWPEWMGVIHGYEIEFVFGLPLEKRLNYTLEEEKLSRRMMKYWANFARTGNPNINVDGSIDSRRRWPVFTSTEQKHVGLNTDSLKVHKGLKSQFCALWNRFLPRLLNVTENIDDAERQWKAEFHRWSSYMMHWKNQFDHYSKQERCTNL

Structure (SMILES) | inhibition [1] [%] | inhibition [2] [%]
C[C@@H]1O[C@@H](O[C@H]2C(Oc3cc(O)c4c(=O)c(O)c(-c5ccc(O)cc5)oc4c3)O[C@H](CO)[C@@H](O)[C@@H]2O)[C@H](O)[C@H](O)[C@H]1O (some centres undefined) | 24.5 | -4.78
CC(=O)O[C@H]1CC[C@]2(C=O)[C@H]3CC[C@]4(C)[C@@H](C5=CC(=O)OC5)CC[C@]4(O)[C@@H]3CC[C@]2(O)C1 | -2.93 | -2.95
CC1=C(/C=C/C(C)=C/C=C/C(C)=C/C(=O)O)C(C)(C)CCC1 | 9.3 | -0.7
CC1(C)CCC2=C(O1)c1ccccc1C(=O)C2=O | -2.91 | 11.2
CC1=C(O)C(=O)C=C2C1=CC=C1[C@@]2(C)CC[C@@]2(C)[C@@H]3C[C@](C)(C(=O)O)CC[C@]3(C)CC[C@]12C | 22.1 | 1.01
O=c1cc(-c2ccc(O)c(O)c2)oc2cc(O)cc(O)c12 | 13.6 | 0.42
OC[C@H]1O[C@@H](O[C@@H]2OC=C[C@H]3[C@H](O)[C@@H]4O[C@]4(CO)[C@@H]23)[C@H](O)[C@@H](O)[C@@H]1O | 11.3 | -5.36
COc1cc(-c2oc3cc(O)ccc3c(=O)c2O)ccc1O | 3.26 | 12.8
COc1cc(-c2oc3cc(O)cc(O)c3c(=O)c2OC2O[C@H](CO)[C@@H](O)[C@H](O)[C@H]2O)cc(OC)c1O (some centres undefined) | 3.25 | 2.12
COc1cc(CNC(=O)CCCC/C=C/C(C)C)ccc1O | -6.53 | 6.29
CCN1C[C@]2(C)CC[C@H](O)[C@]34C1[C@@H](C[C@H]23)[C@@]1(O)C[C@H](OC)[C@H]2C[C@@H]4[C@@H]1[C@H]2O | 20 | -5.97
COC(=O)[C@H]1[C@H]2C[C@H]3c4[nH]c5cc(OC)ccc5c4CCN3C[C@H]2C[C@@H](OC(=O)c2cc(OC)c(OC)c(OC)c2)[C@@H]1OC | -2.45 | -8.07
CC[C@@H](C(=O)[C@@H](C)[C@@H](O)[C@H](C)[C@@H]1O[C@@H]([C@@H](CC)C(=O)O)CC[C@@H]1C)[C@H]1O[C@]2(C=C[C@@H](O)[C@]3(CC[C@@](C)([C@H]4CC[C@](O)(CC)[C@H](C)O4)O3)O2)[C@H](C)C[C@@H]1C | 4.25 | 3.73
COc1ccc(-c2cc(=O)c3c(OC)c(OC)c(OC)cc3o2)cc1OC | 29.6 | 17.1
CC[C@]1(O)C[C@H]2CN(CCc3c([nH]c4ccccc34)[C@@](C(=O)OC)(c3cc4c(cc3OC)N(C=O)[C@H]3[C@@](O)(C(=O)OC)[C@H](OC(C)=O)[C@]5(CC)C=CCN6CC[C@]43[C@@H]65)C2)C1 | 10.9 | 2.81
C[C@H]1CCC/C=C/[C@@H]2C[C@H](O)C[C@H]2[C@H](O)/C=C/C(=O)O1 | -3.21 | 5.24
O=C(CCc1ccc(O)cc1)c1c(O)cc(O)cc1O | -6.41 | 17
COC(=O)[C@H]1[C@H]2C[C@@H]3c4[nH]c5cc(OC)ccc5c4CCN3C[C@H]2C[C@@H](OC(=O)c2cc(OC)c(OC)c(OC)c2)[C@@H]1OC | 5.06 | 15.3
CC1(C)CCC[C@](C)([C@H]2CC[C@]3(C)[C@@H]2[C@H](O)C[C@@H]2[C@@]4(C)CC[C@H](O)C(C)(C)[C@@H]4[C@@H](O)C[C@]23C)O1 | 6.16 | 8.34

Structure (SMILES) | inhibition [1] [%] | inhibition [2] [%]
CO[C@H]1C[C@H](O[C@H]2[C@H](C)[C@@H](O[C@@H]3O[C@H](C)C[C@H](N(C)C)[C@H]3OC(C)=O)[C@@H](C)C[C@@]3(CO3)C(=O)[C@H](C)[C@@H](OC(C)=O)[C@@H](C)[C@@H](C)OC(=O)[C@@H]2C)O[C@@H](C)[C@@H]1OC(C)=O | 14.8 | -1.09
O=c1c(O)c(-c2ccc(O)c(O)c2)oc2cc(O)ccc12 | 27.5 | 2.06
CCCC(=O)O[C@@H]1[C@@H](C)[C@@]2(O)[C@@H](C=C(CO)C[C@]3(O)C(=O)C(C)=C[C@@H]23)[C@@H]2C(C)(C)[C@]12OC(=O)CCC (stereo in doubt; form 1) | 22.5 | 0.87
C=C(C)[C@@H]1[C@H]2OC(=O)[C@@H]1[C@]1(O)C[C@H]3O[C@]34C(=O)O[C@H]2[C@]14C | 11.4 | -3.55
C[C@@H]1[C@H](O)[C@@H](C)/C=C/C=C/C=C/C=C/C=C/C=C/C=C/[C@H](O[C@@H]2O[C@H](C)[C@@H](O)[C@H](N)[C@@H]2O)C[C@@H]2O[C@](O)(C[C@@H](O)C[C@@H](O)[C@H](O)CC[C@@H](O)C[C@@H](O)CC(=O)O[C@H]1C)C[C@H](O)[C@H]2C(=O)O | 8.91 | 11.9
CCCC(=O)O[C@@H]1[C@@H](C)[C@@]2(O)[C@@H](C=C(CO)C[C@]3(O)C(=O)C(C)=C[C@@H]23)[C@@H]2C(C)(C)[C@]12OC(=O)CCC (stereo in doubt; form 2) | 19.5 | 5.87
C=C1CC[C@@H]2[C@](C)(CO)[C@H](O)CC[C@@]2(C)[C@@H]1C/C=C1/C(=O)OC[C@H]1O | 25.1 | 8.56
C[C@]1(C(=O)O)CCC[C@]2(C)c3cc(O)ccc3CC[C@@H]12 | -4.47 | -2.99
O=c1c(O)c(-c2ccc(O)cc2)oc2cc(O)cc(O)c12 | 20 | 5.23
COc1ccc(-c2oc3cc(O)cc(O)c3c(=O)c2O)cc1O | 25.9 | 3.18
COc1cccc2c1C(=O)c1c(O)c3c(c(O)c1C2=O)C[C@@](O)(C(C)=O)C[C@@H]3O[C@H]1C[C@H](N)[C@H](O)[C@H](C)O1 | 18.1 | -0.13
O=C(O)Cc1c[nH]c2ccccc12 | 2.98 | -7.42
CC(C)=CC[C@@H](O)C1=CC(=O)c2c(O)ccc(O)c2C1=O | 15.7 | 3.58
CC1=CC(=O)C2=C(C)CC[C@@H]3[C@H](OC(=O)[C@H]3C)[C@@H]12 | -3.63 | 0.28
COc1c2c3c4c(c(OC)c(=O)c5c(O)cc(OC)c(c6c(OC)cc(O)c(c1=O)c63)c54)[C@@H](C(C)=O)[C@@](C)(O)C2 (relative stereo) | 5.56 | 1.53
COc1cc2c(cc1OC)[C@@H]1C(=O)c3ccc4c(c3O[C@@H]1CO2)C=CC(C)(C)O4 | -8.14 | 2.21
C[C@H]1O[C@@H](O[C@H]2[C@@H](O)C[C@H](O[C@H]3[C@@H](O)C[C@H](O[C@H]4CC[C@@]5(C)[C@H](CC[C@@H]6[C@@H]5CC[C@]5(C)[C@@H](C7=CC(=O)OC7)CC[C@]65O)C4)O[C@@H]3C)O[C@@H]2C)C[C@H](O)[C@@H]1O | -1.83 | -0.78
O=C1Nc2ccccc2/C1=C1/Nc2ccccc2C1=O | 7.97 | 13.7
COc1c2occc2cc2ccc(=O)oc12 | 4.4 | 8.34

Structure (SMILES) | inhibition [1] [%] | inhibition [2] [%]
CCC12C=CCN3CC[C@@]4(c5ccc(OC)cc5N(C)[C@H]4[C@@](O)(C(=O)OC)[C@@H]1OC(C)=O)[C@@H]32 (some centres undefined) | 2.49 | -7.45
CC[C@]12CCCN3CCc4c(n(c5ccccc45)C(=O)C1)[C@@H]32 | 12.1 | 0.04
C[C@@H]1C/C=C/C=C/C=C/C=C/[C@H](O[C@@H]2O[C@H](C)[C@@H](O)[C@H](N)[C@@H]2O)C[C@@H]2O[C@](O)(C[C@@H](O)C[C@H]3O[C@@H]3/C=C/C(=O)O1)C[C@H](O)[C@H]2C(=O)O | -4.37 | -8.59
COc1ccc(-c2coc3cc(O)cc(O)c3c2=O)cc1 | 2.29 | -9.1
COc1cccc2c1C(=O)c1c(O)c3c(c(O)c1C2=O)C[C@@](O)(C(=O)CO)C[C@@H]3O[C@H]1C[C@H](N)[C@H](O)[C@H](C)O1 | 10.4 | 1.2
COC1=CC(=O)C[C@@H](C)[C@]12Oc1c(Cl)c(OC)cc(OC)c1C2=O | -8.73 | -4.49
CC[C@H](CC[C@@H](C)[C@H]1CC[C@H]2[C@@H]3CC=C4C[C@@H](O)CC[C@]4(C)[C@H]3CC[C@]12C)C(C)C | 13.8 | -1.87
C/C=C1\C[C@@H](C)[C@](O)(CO)C(=O)OCC2=CCN3CC[C@@H](OC1=O)[C@@H]23 | 4.15 | -3.05
CO[C@H]1[C@@H](O)[C@@H](C)O[C@H](O[C@H]2[C@H](Oc3cccc4c(O)c5c(=O)oc6ccc(C)c7c(=O)oc(c34)c5c67)O[C@H](C)[C@H](O)[C@@H]2O)[C@@H]1O | 17.5 | 7.94
Cc1cc(Cc2cc(C)cc(C(C)(C)C)c2O)c(O)c(C(C)(C)C)c1 | -4.45 | 0.28
C=C[C@@](C)(O)CC[C@H]1C(=C)CC[C@H]2C(C)(C)CCC[C@]12C | 21.8 | 0.47
C[C@@H]1O[C@@H](O[C@H]2C[C@@H](O)[C@]3(CO)[C@H]4[C@H](O)C[C@]5(C)[C@@H](C6=CC(=O)OC6)CC[C@]5(O)[C@@H]4CC[C@]3(O)C2)[C@H](O)[C@H](O)[C@H]1O | -3.72 | 5.11
CC(=O)O[C@@H]1CC[C@@]2(C)[C@H](C1)[C@H](OC(C)=O)C[C@@H]1[C@@H]2C[C@H]2[C@@H]3CN4C[C@H](C)CC[C@H]4[C@H](C)[C@H]3CC[C@@]12O | 26.8 | 4.14
C[C@H]([C@H](O)CCC(C)(C)O)[C@H]1CC[C@@]2(O)C3=CC(=O)[C@@H]4C[C@@H](O)[C@@H](O)C[C@]4(C)[C@H]3CC[C@]12C | -0.57 | -1.9
C[C@H]1C(=O)CC[C@@H]2[C@]1(C)CC[C@H]1[C@@]2(C)CC[C@@]2(C)[C@@H]3CC(C)(C)CC[C@]3(C)CC[C@]12C | -3.69 | -0.57
CCOC(=O)[C@H]1O[C@@H]1C(=O)N[C@@H](CC(C)C)C(=O)NCCC(C)C | 1.24 | -0.73
O=c1cc(-c2ccc(O)c(OC3O[C@H](CO)[C@@H](O)[C@H](O)[C@H]3O)c2)oc2cc(OC3O[C@H](CO)[C@@H](O)[C@H](O)[C@H]3O)cc(O)c12 (some centres undefined) | 28.6 | -2.06
COC1=C[C@@H]2[C@@H]3Cc4ccc(OC)c(O)c4[C@]2(CCN3C)CC1=O | 4.63 | 5.14
COc1cc([C@@H]2c3cc4c(cc3[C@@H](O)[C@H]3COC(=O)[C@H]23)OCO4)cc(OC)c1O | 6.34 | -7.02

— ChEMBL document CHEMBL2163249, “Exploration of natural compounds as sources of new bifunctional scaffolds targeting cholinesterases and beta amyloid aggregation: the case of chelerythrine” (Bioorg Med Chem, 2012)
